# Measured values: patent US20170057948A1, “INDOLE-LIKE TRK RECEPTOR ANTAGONISTS” (Tallinn University of Technology, priority 2015, published 2017)
# Experiments:
# TrkA [1] = target: T1, TrkA (Homo sapiens, UniProt P04629); conditions: 1 μM concentration; cited from earlier work
# T1 construct: purchased ProQinase, Germany (custom-ordered assay service)
# Syk [2] = target: T2, Syk (Homo sapiens, UniProt P43405); conditions: 1 μM concentration; cited from earlier work
# TrkA [3] = target: T1, TrkA; test: In vitro kinase profiling (48 kinases), TrkA; format: biochemical; conditions: 1 μM concentration; read-out: residual activity of TrkA
# Description: According to the results, at concentration of 100 nM all compounds were relatively TrkA specific inhibiting only up to 3 off-target kinases, while reducing the activity of TrkA by at least 82% at 100 nM concentration and 94% at 1 μM concentration. At 100 nM, 2a25 was able to inhibit only TrkA. […] Kinases that were inhibited by most of the compounds at 1 concentration included Aurora-B, CAMKK2, CHK2, IRAK4, LCK, and MAP3K11.
# (§1) The biochemical kinase assays were custom ordered from ProQinase, Germany.
# [4] = test system: cortical neurons, PC-12 cells or dividing MG87/TRKB/luc/Elk1 cells; test: Toxic or adverse effect on cells (summary statement); format: cell-based
# From the text: The Trk antagonists of the invention share a similar indole-like basic structure; however, substituent substitution yielded compounds with markedly high activity and specificity for the Trk family.
# TrkA [5] = target: T3, TrkA (Rattus norvegicus, UniProt P35739); test: PC-12/luc/Elk1 luciferase reporter cellular assay (NGF-induced); format: cell-based; conditions: 50 ng/ml NGF, 18 h treatment
# T3 construct: endogenous in cells; host or cells: PC-12 and PC-12/luc/Elk1 (rat pheochromocytoma)
# From the text: A stably transfected cell line was generated in order to assess the capability of the compounds to inhibit the activation of TrkA receptor in the natural (neural) cellular context. Once the endogenic TrkA of the PC-12/luc/Elk1 cell line becomes activated, the downstream events result in phosphorylation of Elk1, the GAL4-dbd fused to Elk1 binds then to GAL4 UAS and activates the transcription of luciferase (FIG. 3). To address the suitability of the generated system for screening application, the Z′-factor was determined (see also Examples section). […] Z′-factor value above 0.5 is considered an indication of a high quality assay. The timeframe of 18 hours with the highest Z′-factor value was chosen for subsequent experiments.
# PC-12 (rat adrenal pheochromocytoma cell line) cells were transfected using LIPOD293 DNA In Vitro Transfection Reagent (SignaGen) with 1 μg of pFA2-Elk1 plasmid and 4 μg of pFR-LUC plasmid (PathDetect Elk1 trans-Reporting System; Agilent Technologies). pFA2-Elk1 plasmid codes for the fusion protein consisting of GAL4-dbd (DNA-binding domain) followed by Elk1 transcription factor and contains Geneticin G418 resistance gene neomycin. pFR-LUC plasmid codes for GAL4 upstream activation sequence (UAS) followed by luciferase reporter gene. A puromycin resistance gene was introduced to the pFR-LUC plasmid using Bst1107I and NdeI restrictases from pGL4.22[luc2CP/Puro] (Promega). The selection of transfected cells was initiated two days after the transfection with addition of 300 μg/ml of G418 (Sigma) and 0.75 μg/ml of puromycin (Sigma-Aldrich) and continued for about one and a half months until distinct cell colonies could be picked, plated, and tested for responsiveness to NGF. Generated cell line, called hereafter PC-12/luc/Elk1, was maintained in Dulbecco's Modified Eagle's Medium (DMEM; PAA) containing 6% fetal bovine serum (FBS; PAA), 6% horse serum (HS; PAA), 1% penicillin/streptomycin (PS; Gibco), 300 μg/ml of Geneticin G418, and 0.75 μg/ml of puromycin. […] PC-12 cells were maintained in DMEM containing 6% FBS, 6% HS, and 1% PS.
# PC-12/luc/Elk1 cells were plated one day before the assay on 96 well plates in 25,000 cells per well. […] The plate was subjected to 10 minutes of shaking and, thereafter, analyzed using TECAN plate reader. […]
# The IC50's of the compounds were determined using cellular and biochemical assays. In the cellular assays, using PC-12/luc/Elk1 and MG87/TrkB/luc/Elk1 cells, the compounds were assessed in gradual dilutions of the compounds in triplets together with NGF or BDNF (Peprotech), respectively. TrkA inhibition was determined using same methodology as for measuring the Z′-factor with 18 h treatment time. […]
# Syk [6] = target: T2, Syk; conditions: cited from earlier work
# Syk [7] = target: T2, Syk; test: In vitro kinase profiling (48 kinases), Syk; format: biochemical; set-up: Aurora-B, CaMMK2, Chk2, Irak4, Lck, Map3K11, Syn aa1-635, TrkA, TrkB, and TrkC; purchased ProQinase, Germany (custom-ordered assay service); conditions: for inhibition of Syk: own experiments
# From the text: as §1
# TrkB = target: T4, TrkB (Rattus norvegicus, UniProt Q63604); test: Western blot of phosphorylated TrkB in MG87/TrkB/luc/Elk1 cells; format: cell-based; conditions: concurrently with BDNF, statistically significant reduction at 1 μM
# T4 construct: expressed in transfected cells; host or cells: MG87/TrkB/luc/Elk1
# Description: (§2) The compounds were tested on PC-12 and MG87/TrkB/luc/Elk1 cells that express TrkA and TrkB, respectively. The cells were treated concurrently with NGF or BDNF and the compounds at three different concentrations. The levels of phosphorylated kinases were assessed using respective antibodies and further quantification of western blot signals. […] Additionally, in these two distinct cellular systems the activity of the Trk proteins may be incomparable due to their different concentration or interaction partners that can affect their behavior. For this reason, most probably there is no big selectivity of these compounds for the Trk kinases which is expected, as the ATP-binding pockets of Trk proteins are highly similar.
# (§3) The PC-12 and MG87/TrkB/luc/Elk1 cells were plated on 6-well plates one day prior to the assay. Cells were treated for 10 minutes with compounds and simultaneously with 50 ng/ml of NGF (PC-12 cells) or BDNF (MG87/TrkB/luc/Elk1 cells). 0.1% of DMSO was used to determine the base level, 0.1% of DMSO concurrently with 50 ng/ml of NGF or BDNF served as a negative control and 0.1% of DMSO concurrently with 5 nM of AZ-23 as a positive control. Thereafter, western blotting was performed as described previously. Antibodies used included: rabbit anti-TrkA (#06-574; 1:1000) from Millipore; rabbit anti phospho-TrkA (#9141; 1:1000), rabbit anti phospho-TrkA/TrkB (#4619; 1:1000), rabbit anti-TrkB (#4603; 1:1000) and rabbit anti phospho-Akt (#4058; 1:3000) from Cell Signaling; mouse anti phosphor-Erk1/2 (#sc-7383; 1:1000) from Santa Cruz and anti-tubulinβ clone E7 (1:1000) from Prof. Michael Klymkovsky.
# TrkA [8] = target: T3, TrkA; test: Western blot of phosphorylated TrkA in PC-12 cells; format: cell-based; conditions: concurrently with NGF, statistically significant reduction at 1 μM
# Description: as §2, §3
# Akt and Erk1/2 = test: Western blot of phosphorylated downstream kinases; format: cell-based; conditions: compared to NGF or BDNF alone
# Description: as §2, §3
# [9] = target: 48 kinases representing the human kinome; test: In vitro kinase profiling, panel of 48 kinases (off-targets); format: biochemical; conditions: 100 nM
# From the text: as §1
# Aqueous solubility = format: physicochemical; conditions: room temperature
# In vivo toxicology study = conditions: C57/B16 mice
# Rat cortical cells = test: Viability of primary cortical neurons (neuron count); format: cell-based; conditions: 24 h, even at 1 μM concentration
# Description: Neurons were grown in NEUROBASAL, a medium supplemented with B27 with phenol red on ploy-L-lysine-coated 35 mm glass bottomed dishes. Culture media and supplements were obtained from Invitrogen (Carlsbad, Calif.). For viability measurements neurons were first transfected with neuronal maker, pAAV-hSyn-DsRedExpress obtained from Addgene (Cambridge, Mass.) allowing better to assess the morphology of individual neurons. Briefly, the condition medium was replaced with 100 μL Opti-MEM 1 medium, containing 2% Lipofectamine 2000 and 1-2 μg of total DNA. Neurons were incubated for 3-4 hrs, after which fresh medium was added.
# MG87/TrkB/luc/Elk1 cells = test: Cellular ATP content, CellTiter-Glo viability assay; format: cell-based; conditions: different concentrations, 24 h
# Description: ATP was measured at least from 8 different wells per treatment condition.
# T3 sequence (P35739 33-799): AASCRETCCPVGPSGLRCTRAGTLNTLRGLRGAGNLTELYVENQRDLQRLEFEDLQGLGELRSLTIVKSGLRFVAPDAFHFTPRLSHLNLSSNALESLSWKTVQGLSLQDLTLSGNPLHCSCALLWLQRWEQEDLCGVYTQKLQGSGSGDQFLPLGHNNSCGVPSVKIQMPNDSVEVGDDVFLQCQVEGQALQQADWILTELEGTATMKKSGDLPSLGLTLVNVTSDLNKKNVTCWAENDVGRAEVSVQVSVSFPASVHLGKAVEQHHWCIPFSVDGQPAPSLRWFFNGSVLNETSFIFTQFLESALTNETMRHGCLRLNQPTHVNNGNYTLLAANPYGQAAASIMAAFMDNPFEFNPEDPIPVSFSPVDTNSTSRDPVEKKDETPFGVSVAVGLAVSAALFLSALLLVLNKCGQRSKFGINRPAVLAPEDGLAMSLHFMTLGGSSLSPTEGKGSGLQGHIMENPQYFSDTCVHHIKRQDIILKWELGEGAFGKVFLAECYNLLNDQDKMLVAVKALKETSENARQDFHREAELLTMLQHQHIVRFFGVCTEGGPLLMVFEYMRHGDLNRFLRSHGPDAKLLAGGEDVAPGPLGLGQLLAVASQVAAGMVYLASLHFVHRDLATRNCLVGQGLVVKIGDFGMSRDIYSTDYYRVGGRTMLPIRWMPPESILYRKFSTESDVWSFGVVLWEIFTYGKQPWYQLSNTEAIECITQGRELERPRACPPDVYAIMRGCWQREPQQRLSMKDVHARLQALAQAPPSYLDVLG
# T4 sequence (Q63604 32-821): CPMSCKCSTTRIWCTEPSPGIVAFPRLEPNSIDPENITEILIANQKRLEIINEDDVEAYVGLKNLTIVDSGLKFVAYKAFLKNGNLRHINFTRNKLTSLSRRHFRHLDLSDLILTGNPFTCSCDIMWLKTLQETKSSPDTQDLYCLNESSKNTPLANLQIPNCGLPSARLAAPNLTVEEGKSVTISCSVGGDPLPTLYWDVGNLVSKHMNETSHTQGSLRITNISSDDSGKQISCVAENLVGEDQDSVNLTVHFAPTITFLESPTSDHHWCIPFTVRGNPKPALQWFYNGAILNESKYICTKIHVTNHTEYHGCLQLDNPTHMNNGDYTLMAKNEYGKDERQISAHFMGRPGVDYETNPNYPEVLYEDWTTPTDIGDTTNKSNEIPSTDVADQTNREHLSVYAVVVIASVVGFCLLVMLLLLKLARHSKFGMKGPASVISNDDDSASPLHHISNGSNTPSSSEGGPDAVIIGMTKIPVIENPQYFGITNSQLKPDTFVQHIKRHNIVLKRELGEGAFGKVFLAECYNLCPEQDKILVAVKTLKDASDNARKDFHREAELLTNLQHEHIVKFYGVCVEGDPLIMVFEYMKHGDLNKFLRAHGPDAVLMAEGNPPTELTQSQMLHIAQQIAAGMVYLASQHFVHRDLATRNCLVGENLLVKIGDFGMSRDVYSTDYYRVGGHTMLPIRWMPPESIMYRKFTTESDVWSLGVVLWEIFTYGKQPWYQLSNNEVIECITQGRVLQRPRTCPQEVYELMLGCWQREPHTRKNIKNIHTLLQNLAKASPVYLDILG
# T1 sequence (P04629 33-796): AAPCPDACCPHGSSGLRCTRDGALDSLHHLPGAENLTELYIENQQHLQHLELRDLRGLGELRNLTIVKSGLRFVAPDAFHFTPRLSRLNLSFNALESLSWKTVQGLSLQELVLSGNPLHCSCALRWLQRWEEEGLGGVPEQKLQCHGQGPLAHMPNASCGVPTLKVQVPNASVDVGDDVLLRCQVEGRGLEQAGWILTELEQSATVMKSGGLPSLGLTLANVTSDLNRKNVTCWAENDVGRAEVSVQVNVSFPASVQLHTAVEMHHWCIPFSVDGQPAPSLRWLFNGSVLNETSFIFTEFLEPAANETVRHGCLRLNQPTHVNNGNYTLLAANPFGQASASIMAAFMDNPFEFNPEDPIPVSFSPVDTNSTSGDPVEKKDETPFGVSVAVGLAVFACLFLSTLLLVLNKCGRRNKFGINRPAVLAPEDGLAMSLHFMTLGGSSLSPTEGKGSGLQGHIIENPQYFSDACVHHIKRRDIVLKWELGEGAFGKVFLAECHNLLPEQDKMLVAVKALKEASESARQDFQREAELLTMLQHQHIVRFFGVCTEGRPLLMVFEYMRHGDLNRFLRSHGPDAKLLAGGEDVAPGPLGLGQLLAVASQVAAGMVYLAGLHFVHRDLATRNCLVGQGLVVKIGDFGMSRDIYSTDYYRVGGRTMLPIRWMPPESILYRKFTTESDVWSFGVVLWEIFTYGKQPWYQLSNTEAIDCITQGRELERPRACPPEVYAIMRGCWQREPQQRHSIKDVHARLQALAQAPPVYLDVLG
SMILES,phosphorylation of TrkB (TrkB),phosphorylation of TrkA (TrkA [8]),residual activity of TrkA (Gao et al.) (TrkA [1]) [%],residual activity of Syk (Gao et al.) (Syk [2]) [%],remaining activity at 1 µM (TrkA [3]) [%],toxic or adverse effect on cells [4],IC50 (TrkA [5]) [nM],reported effect on Syk activity (Syk [6]),inhibition of Syk (Syk [7]),remaining activity at 1 µM (Syk [7]; read-out: residual activity of Syk) [%],phosphorylation of downstream kinases Akt and Erk1/2 (Akt and Erk1/2),kinases whose activity was reduced at least by 50% [9],solubility (Aqueous solubility; aqueous medium (not further specified)) [µg/mL],aqueous solubility (Aqueous solubility) [µM],toxic effects in mice (In vivo toxicology study),number of viable neurons (Rat cortical cells),cell viability (cellular ATP content) (MG87/TrkB/luc/Elk1 cells)
Cn1cc(/C=C2\C(=O)Nc3ccc(S(N)(=O)=O)cc32)c2ccccc21 [Compound 2a21],–,–,1,38,2,no toxic or adverse effect,≤ 100,Syk inhibitors,failed to inhibit Syk at significant levels,47,–,–,–,–,–,–,–
COc1ccc2c(c1)c(/C=C1\C(=O)Nc3ccc(S(N)(=O)=O)cc31)cn2C [Compound 2a22],effectively inhibited,effectively inhibited,–,–,–,no toxic or adverse effect,–,–,–,–,diminished,–,–,–,–,–,–
"COc1ccc2[nH]cc(/C=C3\C(=O)Nc4ccc(S(N)(=O)=O)cc43)c2c1 [Compound 2a23, (Z)-3-((5-methoxy-1H-indol-3-yl)methylene)-2-oxindole-5-sulfonamide]",–,–,–,–,–,no toxic or adverse effect,≤ 100,Syk inhibitors,failed to inhibit Syk at significant levels,–,–,only one kinase in addition to the Trk kinases,–,–,–,–,–
"COc1ccc2c(c1)c(/C=C1\C(=O)Nc3ccc(S(=O)(=O)N(C)C)cc31)cn2C [Compound 2a25, (Z)-3-((5-methoxy-1-methyl-1H-indol-3-yl)methylene)-N,N-dimethyl-2-oxindole-5-sulfonamide]",effectively inhibited,effectively inhibited,–,–,–,no toxic or adverse effect,≤ 100,not to suppress Syk activity,–,–,diminished,only TrkA,3.2 ± 0.1,7.8 ± 0.2,no toxic effects,No reduction,no effect
"CN(C)S(=O)(=O)c1ccc2c(c1)/C(=C/c1cn(C)c3ccc(O)cc13)C(=O)N2 [Compound 3a25, (Z)-3-((5-hydroxy-1-methyl-1H-indol-3-yl)methylene)-N,N-dimethyl-2-oxindole-5-sulfonamide]",–,–,–,–,–,no toxic or adverse effect,≤ 100,–,–,–,–,only one kinase in addition to the Trk kinases,–,–,–,–,–
"CNS(=O)(=O)c1ccc2c(c1)/C(=C/c1cn(C)c3ccc(OC)cc13)C(=O)N2 [Compound 4a22, (Z)-3-((5-methoxy-1-methyl-1H-indol-3-yl)methylene)-N-methyl-2-oxindole-5-sulfonamide]",effectively inhibited,effectively inhibited,–,–,–,no toxic or adverse effect,–,–,–,–,diminished,–,–,–,–,–,–
